In patent publication US20250099407A1, “2-AMINO BENZOPHENONE DERIVATIVES FOR TARGETED FERROPTOSIS INDUCTION IN CANCER THERAPY” (INDIAN INSTITUTE OF TECHNOLOGY KANPUR, priority 2023, published 2025):
Like-named read-outs stand apart in the source and are kept apart here.

Key:
Format in all cases: cell-based
A549 = assay: Cell viability, A549; details: Homo sapiens
U2OS = assay: Cell viability, CellTiter-Glo assay, U2OS
Method in brief: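 Cell viability was measured by CellTiter-Glo ATP luminescence in DMEM, with DMSO control. The compound was tested in an 8-point 3-fold dilution series from 100 or 10 μM down to 45 or 4.5 nM. Each run had at least two biological replicates, each in technical triplicate.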

PC3 = assay: Cell viability, CellTiter-Glo assay, PC3
Method: (§1) The viability of screened cancer cells was recorded using a luminescence-based CellTiter-Glo® assay for the ATP quantification. The screening concentration of the molecule ranged from 100/10 μM to 45/4.5 nM with an 8-point-3-fold dilution series in DMEM media (>0.1% DMSO as control). Each experiment was conducted in more than two biological replicates with three technical replicates. The error bar is a representation of standard deviation among the technical replicates.
as §1, with “IITK3002” for “the molecule”, “10” for “100/10”, “4.5” for “45/4.5”
a. […] In parallel, we have also synthesized the bromoacetamide (IITK3002) version of the lead molecules which is slightly more reactive with thiol nucleophiles when compared to chlorooacetamide warheads as depicted in FIG. 13. […] In addition, we also evaluated the molecules' antiproliferative potency against a panel of twelve different cancer phenotypes. The set of cancer cell lines included liver, breast, colon, myeloma, bone, blood, skin, brain and prostate lineages (FIG. 2, 3, Table 1).

Huh-7 cells = assay: Combination cell viability experiments with thiols, ferroptosis modulators and cell death inhibitors in Huh-7 cells; details: for reduction in potency by N-acetylcysteine (NAC) and GSH: 500 μM NAC or glutathione in combination; for effect of erastin addition on antiproliferative activity: Erastin 0.5 μM, relatively non-toxic concentration; for effect of apoptosis (QVD-OPh) and necrosis (Necrostatin-1) inhibitors on antiproliferative activity: QVD-OPh and Necrostatin-1 10 μM; for cell death mechanism from combination experiments: combination with GSH, NAC, BSO, Fer-1, deferoxamine, RSL3, FIN56, Erastin, QVD-OPh, necrostatin-1, Huh-7 and 4T1
Method: FIG. 14 depicts a combination experiment indicates the involvement of thiol modulation by IITK3001/IITK3002 on the viability of Huh-7 and 4T1 cells, in accordance with an embodiment of the present invention. The viability of screened cancer cells was recorded using a luminescence-based CellTiter-Glo® assay for the ATP quantification. The screening concentration of (a) IITK3001 and (b) IITK3002 ranged from 10 uM to 4.5 nM with an 8-point-3-fold dilution series in DMEM medium (>0.1% DMSO as control). For combination experiments, 500 μM of NAC or glutathione and 25 μM of BSO were used. Each experiment was conducted in more than two biological replicates with three technical replicates. The error bar is a representation of standard deviation among the technical replicates.
(§2) FIG. 16 depicts ferroptosis induction as a cell death mechanism is established for IITK3001 using combination experiments with ferroptosis inducers and inhibitors, in accordance with an embodiment of the present invention. The screening concentration of (a) IITK3001 and (b) IITK3002 ranged from 10 μM to 4.5 nM with an 8-point-3-fold dilution series in DMEM medium (>0.1% DMSO as control). For combination experiments, Ferrostain-1 (10 μM),Deferoxamine (3 μM), RSL3 (10 nM), FIN56 (30 nM), glutamine (0.5 mM), glutamic acid (0.5 mM), Erastin (0.5 μM) were used. Each experiment was conducted in more than two biological replicates with three technical replicates. The error bar is a representation of standard deviation among the technical replicates.
as §2, with “18” for “16”, “IITK3002” for “IITK3001”, “of” for “of (a) IITK3001 and (b)”, “μM), Deferoxamine” for “μM),Deferoxamine”
FIG. 20 depicts combining apoptosis and necroptosis inhibitors ruled out the possibility of respective cell death mechanisms upon treatment with IITK3001 or IITK3002 in Huh-7 and 4T1 cells, in accordance with an embodiment of the present invention. The screening concentration of IITK3001/IITK3002 ranged from 10 μM to 4.5 nM with an 8-point-3-fold dilution series in DMEM medium (>0.1% DMSO as control). For combination experiments, QVD-OPh and Necrsotatin-1 (10 μM) were used. Each experiment was conducted in more than two biological replicates with three technical replicates. The error bar is a representation of standard deviation among the technical replicates.
FIG. 22 depicts ferroptosis induction was established for IITK3003 using combination experiments in Huh-7 cells, in accordance with an embodiment of the present invention. The screening concentration of IITK3002 ranged from 10 uM to 4.5 nM with an 8-point-3-fold dilution series in DMEM medium (>0.1% DMSO as control). For combination experiments, Ferrostain-1 ([…]), Deferoxamine (3 μM), RSL3 (10 nM), FIN56 (30 nM), glutamine (0.5 mM), glutamic acid (0.5 mM), Erastin (0.5 μM) were used. Each experiment was conducted in more than two biological replicates with three technical replicates. The error bar is a representation of standard deviation among the technical replicates.
FIG. 24 depicts ferroptosis induction was established for IITK3004 using combination experiments in Huh-7 cells, in accordance with an embodiment of the present invention. The screening concentration of the molecules (a) IITK3001 and (b) IITK3002 ranged from 10 μM to 4.5 nM with a 8-point-3-fold dilution series. […]

[1] = Homo sapiens, PC-3, PC3, cell viability

SMILES | EC50 (A549) | EC50 (U2OS) | EC50 (U2OS; Homo sapiens) | EC50 (PC3; [1]) | EC50 (PC3; PC3, cell viability) | reduction in potency by N-acetylcysteine (NAC) and GSH (Huh-7 cells) | effect of erastin addition on antiproliferative activity (Huh-7 cells) | effect of apoptosis (QVD-OPh) and necrosis (Necrostatin-1) inhibitors on antiproliferative activity (Huh-7 cells) | cell death mechanism from combination experiments (Huh-7 cells)
CN(C(=O)CBr)c1ccccc1C(=O)c1ccccc1 [IITK3002, N-(2-benzoylphenyl)-2-bromo-N-methylacetamide] | 30 nM | 130 nM | 133 nM | 193 nM | 190 nM | > 500 fold | no effect | no apparent deviation | ferroptosis
CN(C(=O)CCl)c1ccccc1C(=O)c1ccccc1 [IITK3001, N-(2-benzoylphenyl)-2-chloro-N-methylacetamide] | 610 nM | 350 nM | 355 nM | 348 nM | 350 nM | > 1000 fold | no effect | no apparent deviation | ferroptosis
C#CCN(C(=O)CCl)c1ccccc1C(=O)c1ccccc1 [IITK3003, N-(2-benzoylphenyl)-2-chloro-N-(prop-2-yn-1-yl)acetamide] | 700 nM |  | 1290 nM | 1110 nM |  |  |  |  | exceptionally selective ferroptosis inducers
